The values that follow come from US20020147137A1, “Medical use of alpha1-acid glycoprotein (AAG) or orosomucoid” (Hamosan Erzeugung Pharmazeutischer Grundstoffe Gesellschaft …, priority 1999, published 2002).

Data set [1] in a line: Withdrawal by means of plasma exchange (comparative): methadone, methadone metabolites and thebaine measured in urine. The note with it: for Substance measured in urine: before 1. PE / before therapy; for concentration at 1 day / concentration at 2 day / concentration at 3 day / concentration at 4 day / concentration at 5 day / concentration at 6 day / concentration at 7 day / concentration at 17 day / concentration at 24 day / concentration at 31 day: human, in vivo. The source says: In the withdrawal therapy of a methadone addict, one of the inventors has practised the method of plasma exchange (PE) for assisting and accelerating the removal of methadone from the body, i.e., blood was taken from the patient, the cellular components were separated and re-infused into the body, and instead of the patient's own plasma portion, the plasma of a donor was supplied.
The patient was 2 x connected to the plasmapheresis (1st and 3rd day). […] Besides, the coagulation parameters were measured because of the hypercoagulability.

For data set [2], the system named is patient in methadone withdrawal. Briefly: Methadone withdrawal by administration of α1-acid glycoprotein: clinical course. Format: in vivo, human (patient). On the procedure: The patient's circulation is stable, the patient is co-operative, a venous cannula and a peripheral venous catheter on the left side are set. Immediately after admission, beginning of sedation with Dormicum 0.4 mg/kg/d, Clonidin 0.02 mg/kg/d. Dormicum bolus administration at admission.
Volume substitution with Elohaest, human albumin and electrolyte solution.
From 4:05 p.m. to 4:15 p.m., renewed hemodilution: 400 ml of own blood was drawn.
Urinating is without any problems and spontaneous.
The patient's only problems are nicotine withdrawal.
Therapy with Clonidin and Dormicum is changed to oral (4×0.075 mg Catapresan and 4×7.5 mg Dormicum per os) with sufficient magnesium substitution in addition. Subjectively, the patient feels well and is free from any discomfort.
Removal of the peripheral venous catheter, continuation of the oral therapy, the patient is moved to the LNKH while being in a good general state and subjectively feeling well.

Data set [3] concerns isolated perfused rat livers. The note with it: protein added to perfusate; cited from earlier work.

Take `COC1=CC=C2[C@H]3Cc4ccc(OC)c5c4[C@@]2(CCN3C)[C@H]1O5` [thebaine]: in data set [1], the “Substance measured in urine” value stood at 7 µg/mL, the concentration at 1 day came to 0 ng/mL, the concentration at 2 day is 0 ng/mL and the concentration at 3 day worked out at 0 ng/mL. Further, in data set [1], the concentration at 4 day stood at 0 ng/mL, the concentration at 5 day was 0 ng/mL, the concentration at 6 day was determined as 0 ng/mL and the concentration at 7 day is 0 ng/mL. For the same compound, in data set [1], the concentration at 17 day turned out to be 0 ng/mL, the concentration at 24 day was determined as 0 ng/mL and the concentration at 31 day came to 0 ng/mL.
As to α1-acid glycoprotein, the “tolerability after first administration” value in data set [2] (3 grams in 500 ml of infusion solution at 10 a.m.) is reported as “first symptoms with slight sweating, otherwise no problems so far”. Moreover, the “acute reaction after second administration” value in data set [2] (6 grams in merely 150 ml of infusion solution at 4:30 p.m.) is recorded as “symptoms of an acute reaction, similar to an allergy”. The physical withdrawal symptoms result in data set [2] (9/20/97, day after AAG administration) is recorded as “no physical withdrawal symptoms”; in data set [2] (9/21/97, second day after AAG administration) it was “no particular physical withdrawal symptoms”. In addition, the “withdrawal symptoms after AAG administration” value in data set [2] (after the short crisis following the 2nd partial amount) is reported as “intensive recovery phase without any withdrawal symptoms”. For the same compound, in data set [2] (methadone withdrawal with AAG, 2nd patient), the “total time until treatment could be terminated” value is given as “three”. In data set [3], the “influence on elimination of drugs capable of being bound” value is reported as “slowed down”. Also, the “influence on elimination of nonbinding drugs” value in data set [3] is reported as “no influence”.
In the case of `CCC(=O)C(CC(C)N(C)C)(c1ccccc1)c1ccccc1` (racemic) [methadone, reference compound], in data set [1], the “Substance measured in urine” value was determined as 15 µg/mL, the concentration at 1 day came to 3000 ng/mL, the concentration at 2 day worked out at 1900 ng/mL and the concentration at 3 day amounted to 500 ng/mL. In data set [1], the concentration at 4 day is 500 ng/mL, the concentration at 5 day amounted to 400 ng/mL, the concentration at 6 day was determined as 300 ng/mL and the concentration at 7 day amounted to 500 ng/mL. Further, in data set [1], the concentration at 17 day amounted to 0 ng/mL, the concentration at 24 day was found to be 0 ng/mL and the concentration at 31 day amounted to 0 ng/mL.
